US20110009616A1, “AGENT FOR PREVENTING ARTERIOSCLEROSIS” (priority 2006, published 2011)

Legend:
[1] = target: T1, bLOX-1 (Bos taurus, UniProt P79391); assay: Fluorescently labeled oxidized LDL uptake into CHO cells stably expressing bLOX-1 (Examples 6, 7); type: cell-based, bovine; parameters: By a positive screening using a full-length bLOX cDNA; expressed in transfected cells; conditions: Example 7; FIG. 6
Target sequence in this assay (P79391 whole entry): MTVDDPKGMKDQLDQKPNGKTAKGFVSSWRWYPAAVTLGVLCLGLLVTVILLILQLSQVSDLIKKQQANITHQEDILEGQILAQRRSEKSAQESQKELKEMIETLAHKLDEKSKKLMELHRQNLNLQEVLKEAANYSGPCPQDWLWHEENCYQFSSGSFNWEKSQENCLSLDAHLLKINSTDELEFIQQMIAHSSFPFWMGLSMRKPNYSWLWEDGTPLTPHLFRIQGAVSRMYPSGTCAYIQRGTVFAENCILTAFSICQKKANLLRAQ

[2] = target: T1, bLOX-1; assay: Plate assay: binding of oxidized LDL to recombinant bLOX-1 (Test Example 1); parameters: 6xHis (N); made in house; host or cells: E. coli; species or system bovine; conditions: final concentration of 16 μM, FIG. 1; for binding rate of oxidized LDL to bLOX-1 (inhibition of binding): control without compounds = 100
Method: A LOX-1 antagonist activity of the agent for preventing arteriosclerosis obtained in the above-mentioned Example was evaluated on a LOX-1 binding inhibition rate to oxidized LDL using a recombinant LOX-1 protein obtained from E. coli.
As for the recombinant LOX-1, in cDNA of LOX-1 derived from bovine (bLOX-1) or derived from human (hLOX-1), a sequence to the C-terminal removing a transmembrane region was inserted into a pQE30 vector having a 6-histidine tag sequence (6×His) at the N-terminal (manufactured by Qiagen) so as to have a sequence aligned to a translation frame. The vector was transformed into E. coli able to be controlled by T5 promoter and the expression of each LOX-1 was induced under induction of 1 m M of isopropyl-1-thio-β-D-[…] (IPTG). After the induction of each expression at 37° C. for 3 hours, since the recombinant LOX-1 was obtained from an insoluble fraction, E. coli was lysed in a buffer containing 6 M guanidine hydrochloride and purified by affinity column chromatography using a Ni-NTA agarose column (manufactured by Qiagen) as the marker of 6×His (solvent: phosphoric acid buffer). Furthermore, each of the elution fractions containing LOX-1 was dialyzed in a 20 mM tris buffer (pH 9.0) and a 8M urea containing buffer, applied to a HiTrap Q column, an anion exchanger, (manufactured by Amersham), and eluted and purified with a linear concentration gradient of NaCl. Each of the fractions containing LOX-1 obtained above was reduced in a buffer containing excess amount of DTT (dithiothreitol), and then intramolecular S-S bonds were unwinded by a redox system using a mixture of oxidized […] low molecular thiol compounds. Each LOX-1 obtained above has a binding ability to the oxidized LDL and will be used as a LOX-1 standard for the following plate assays.
The plate assay was carried out using MaxiSorp Immuno Plate (96-well type, manufactured by NUNC). Each LOX-1 purified above was prepared with a PBS buffer so as to be 5 μg/mL, and 100 μL of the solution was applied to each well. After leaving at 4° C. overnight, each well was washed with 400 μL of a PBS buffer twice (400 μL×2) and 300 μL of a PBS buffer containing 25% BlockAce (manufactured by Dainippon Sumitomo Pharma Co., Ltd.) was applied to each well. After leaving at 4° C. overnight, each well was washed with 400 μL of a PBS buffer twice (400 μL×2), a solution of ethyl pheophorbide a was prepared with a PBS buffer containing 1% bovine serum albumin (BSA) so as to have an appropriate dilution rate, and 100 μL of the solution was applied to each well. After leaving at 4° C. overnight, each well was washed with 400 μL of a PBS buffer three times (400 μL×3), a solution of oxidized LDL was prepared with a PBS buffer so as to be 5 μg/mL, and 100 μL of the solution was applied to eachr well. After leaving at 4° C. overnight, each well was washed with 400 μL of a PBS buffer three times (400 μL×3), a horseradish peroxidase-conjugated anti-apolipoprotein B antibody (manufactured by The Binding Site) was diluted 1000 times with a PBS buffer, and 100 μL of the solution was applied to each well. After leaving at room temperature for 2 hours, each well was washed with 400 μL of a PBS buffer five times (400 μL×5), and 100 μL of a 3,3′,5,5′-tetramethylbenzidine (TMB) peroxidase-enzyme immunoassay (EIA)-substrate-kit reagent (manufactured by Bio-Rad) was applied to each well. After an appropriate reaction period, 50 μL of 2M H2SO4 was applied to each well to stop the reaction. Finally, a LOX-1 antagonist activity (an oxidized LDL binding inhibition rate to LOX-1) was determined by detection at 450 nm.
Target sequence in this assay (P79391 57-270 limits assumed): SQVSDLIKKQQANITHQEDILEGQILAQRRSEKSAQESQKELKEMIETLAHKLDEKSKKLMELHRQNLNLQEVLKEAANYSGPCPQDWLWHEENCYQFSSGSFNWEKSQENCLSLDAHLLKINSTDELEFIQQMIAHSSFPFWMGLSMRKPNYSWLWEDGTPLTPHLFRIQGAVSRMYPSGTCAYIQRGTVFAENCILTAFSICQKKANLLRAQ

[3] = test system: living cells (mitochondria activity); assay: Cytotoxicity, number of living cells by Cell counting Kit-8 (WST-8) (Example 5); type: cell-based; conditions: 7 hours with compound; concentrations where the inhibitory activities were effective; results not shown
Method: In order to examine cytotoxicities of the compounds in Examples 1 to 4 and Comparative Examples 1 to 9, the number of living cells was measured as follows. As a method for measuring the number of living cells, a MTT method using a reduction of MTT (3-(4,5-dimethyl-2-thiazolyl)-2,5-diphenyltetrazolium bromide) to formazan (formed as a poorly soluble precipitate) by dehydrogenase in mitochondria, and the like, are generally used. Thus, “Cell counting Kit-8” (manufactured by Dojindo Laboratories, WST-8 which forms a water soluble formazan is used instead of MTT), a modified method of the MTT method, was used for the measurement of the number of living cells. Specifically, 100 μL of cells were seeded into inner 60 wells of a 96-well plate (manufactured by Falcon) so as to be 3.0×10^4 cells/mL, respectively (in order to avoid temperature variation, 100 μL of a culture medium was only added into the outer 36 wells). After cultivating for 2 days (37° C.), 50 μL of the culture supernatant was removed and 50 μL of a new culture medium containing each compound with an appropriate dilution rate was added. After adding the new culture medium containing each compound, the cells were cultivated for 7 hours. After 7 hours, each well was washed with 100 μL of the culture medium without the compounds three times, and then 3 μL of a culture medium containing “WST-8”, a “Cell counting Kit-8” solution, was added to each well. After cultivating for 1 hour, absorbance at 450 nm of each culture medium was measured and converted to the number of living cells. It is considered that three washing operations in the process omit the effect of the compounds in the external solution on the absorbance.

| binding rate of oxidized LDL to bLOX-1 (inhibition of binding) [2] | Compound | inhibition of DiI-OxLDL uptake in CHO cells expressing bLOX, compared with inhibition of CTB uptake [1] | inhibition activity on binding of oxidized LDL to bLOX-1 (ranking among actives) [2] | cytotoxicity (number of living cells) [3] |
| --- | --- | --- | --- | --- |
| – | C[C@@H]1[C@H](O)[C@@H](C)/C=C/C=C/CC/C=C/C=C/C=C/C=C/C(O[C@H]2O[C@H](C)[C@@H](O)[C@H](N)[C@@H]2O)CC2O[C@](O)(CC(O)C(O)CCC(O)CC(O)CC(O)CC(=O)O[C@H]1C)CC(O)C2C(=O)O (stereo partly drawn) [nystatin, Nystatin] | nearly equal to that of CTB | – | – |
| inhibit the binding significantly | hematoporphyrin | – | high inhibition activities | did not show the cytotoxicity |
| inhibit the binding significantly | uroporphyrin III | – | – | did not show the cytotoxicity |

| Compound | binding rate of oxidized LDL to bLOX-1 (inhibition of binding) [2] | inhibition of DiI-OxLDL uptake in CHO cells expressing bLOX, compared with inhibition of CTB uptake [1] | inhibition activity on binding of oxidized LDL to bLOX-1 (ranking among actives) [2] | cytotoxicity (number of living cells) [3] |
| --- | --- | --- | --- | --- |
| C=CC1=C(C)c2cc3[nH]c(c4c5nc(cc6[nH]c(cc1n2)c(C)c6CC)C(C)=C5C(=O)C4C(=O)OC)C(CCC(=O)OCC)C3C (stereo not drawn) [ethyl pheophorbide a] | inhibit the binding significantly | – | high inhibition activities | did not show the cytotoxicity |
